How the values were obtained:
EZH1 = EZH1 (Homo sapiens, UniProt Q92800); experiment: AlphaLISA enzyme activity inhibition, EZH1; format: biochemical; details: 5nM test substance
Protocol: (§1) In order to confirm the EZH1 and/or EZH2 activity inhibitory effect of the 1,3-benzodioxole derivative compounds represented by chemical formula I of the present invention, the activity was measured using an AlphaLISA test method. The test substance dissolved in dimethylsulfoxide (DMSO) was diluted in a test solution (20 mM Tris pH 8.0, 0.1% BSA, 0.01% Triton X-100, 0.5 mM DTT) according to a final treatment concentration (5 nM or 10 nM) and mixed with EZH1 and EZH2, respectively, and then histone H3 peptide and S-adenosylmethionine (SAM) were added to initiate an enzyme reaction. An acceptor bead was added thereto after reaction for two hours and subjected to an additional reaction for one hour, after which a donor bead was added thereto. After an additional reaction for 30 minutes, the reaction was completed. An activity was measured using the Magellan program on a Spark10M instrument. DMSO was used as a control group, an inhibition rate of enzyme activity was calculated using a following equation, and the results thereof are shown in Table 1 below. [formula]

EZH2 = EZH2 (Homo sapiens, UniProt Q15910); experiment: AlphaLISA enzyme activity inhibition, EZH2; format: biochemical; details: 5nM test substance
Chain of EZH2 (Q15910 whole entry, species assumed): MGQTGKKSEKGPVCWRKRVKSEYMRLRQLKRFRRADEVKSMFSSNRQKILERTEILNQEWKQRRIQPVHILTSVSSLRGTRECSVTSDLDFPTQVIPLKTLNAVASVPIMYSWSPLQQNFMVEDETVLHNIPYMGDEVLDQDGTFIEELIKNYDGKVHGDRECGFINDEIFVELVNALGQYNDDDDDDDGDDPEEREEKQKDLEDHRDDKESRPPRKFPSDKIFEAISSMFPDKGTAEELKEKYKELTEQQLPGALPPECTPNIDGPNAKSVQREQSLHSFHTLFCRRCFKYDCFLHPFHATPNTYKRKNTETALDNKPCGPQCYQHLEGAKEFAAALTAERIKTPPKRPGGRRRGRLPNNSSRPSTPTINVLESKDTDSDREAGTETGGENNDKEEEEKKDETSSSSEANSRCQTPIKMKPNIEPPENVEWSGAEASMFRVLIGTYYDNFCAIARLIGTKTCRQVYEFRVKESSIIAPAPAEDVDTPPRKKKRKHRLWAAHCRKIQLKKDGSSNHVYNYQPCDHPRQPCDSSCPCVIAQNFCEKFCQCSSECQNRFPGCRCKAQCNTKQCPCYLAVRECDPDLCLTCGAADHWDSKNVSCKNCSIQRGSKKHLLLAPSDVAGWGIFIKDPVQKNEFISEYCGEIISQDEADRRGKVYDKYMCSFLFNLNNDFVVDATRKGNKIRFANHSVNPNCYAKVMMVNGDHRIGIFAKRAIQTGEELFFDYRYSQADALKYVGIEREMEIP
Chain of EZH2 (O75530 whole entry partner, species assumed): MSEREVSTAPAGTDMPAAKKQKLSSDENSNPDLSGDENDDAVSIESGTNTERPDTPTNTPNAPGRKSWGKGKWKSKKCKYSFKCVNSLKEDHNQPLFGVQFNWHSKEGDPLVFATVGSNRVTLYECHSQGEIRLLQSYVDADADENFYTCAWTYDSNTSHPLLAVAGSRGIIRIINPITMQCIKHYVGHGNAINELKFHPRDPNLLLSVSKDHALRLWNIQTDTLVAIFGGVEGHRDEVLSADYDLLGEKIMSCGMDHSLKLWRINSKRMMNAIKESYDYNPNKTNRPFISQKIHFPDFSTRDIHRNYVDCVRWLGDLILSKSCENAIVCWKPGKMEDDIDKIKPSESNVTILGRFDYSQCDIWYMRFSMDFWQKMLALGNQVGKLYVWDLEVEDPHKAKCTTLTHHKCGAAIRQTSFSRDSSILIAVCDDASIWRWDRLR
Chain of EZH2 (Q15022 whole entry partner, species assumed): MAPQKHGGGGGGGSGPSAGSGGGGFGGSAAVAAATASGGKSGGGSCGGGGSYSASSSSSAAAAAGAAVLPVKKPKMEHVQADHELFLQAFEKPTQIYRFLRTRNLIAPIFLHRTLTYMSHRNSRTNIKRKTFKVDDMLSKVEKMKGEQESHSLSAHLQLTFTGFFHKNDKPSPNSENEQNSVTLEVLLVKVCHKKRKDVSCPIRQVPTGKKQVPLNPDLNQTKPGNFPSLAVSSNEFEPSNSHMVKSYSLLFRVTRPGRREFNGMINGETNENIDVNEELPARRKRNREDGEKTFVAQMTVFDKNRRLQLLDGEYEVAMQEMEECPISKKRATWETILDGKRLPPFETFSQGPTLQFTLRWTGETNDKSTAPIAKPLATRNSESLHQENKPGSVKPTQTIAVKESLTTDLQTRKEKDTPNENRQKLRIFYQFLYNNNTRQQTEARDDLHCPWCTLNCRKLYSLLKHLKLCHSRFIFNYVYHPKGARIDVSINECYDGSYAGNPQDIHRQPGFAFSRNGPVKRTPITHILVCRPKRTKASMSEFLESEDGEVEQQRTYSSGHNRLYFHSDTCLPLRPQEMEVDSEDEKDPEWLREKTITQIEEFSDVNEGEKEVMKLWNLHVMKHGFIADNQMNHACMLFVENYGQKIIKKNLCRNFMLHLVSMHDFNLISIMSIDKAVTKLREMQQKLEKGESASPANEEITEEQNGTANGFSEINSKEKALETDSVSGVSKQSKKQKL
Protocol: as §1

Lovo cells = experiment: Cancer cell proliferation inhibition (Cell Counting Kit-8), colorectal cancer cell line; format: cell-based; details: 1000 nM, cultured seven to 11 days; for inhibition at 1 µM: Homo sapiens, LoVo, 264 h, read-out: % inhibition rate LoVo
Protocol: (§2) In addition, as one example of solid cancer in which an overexpression of EZH2 and a consequent disease association therebetween is reported, a proliferation inhibitory activity of the 1,3-benzodioxole derivative compounds represented by chemical formula I of the present invention was evaluated in Lovo cells as a colorectal cancer cell line, SW-13 cells as an adrenal cancer cell line, MIA-PaCa-2 cells as a pancreatic cancer cell line, and NCI-H1299 cells as a lung cancer cell line.
(§3) Each cell line (G401 cell, MKN-45 cell, Lovo cell, SW-13 cell, MIA-PaCa-2, NCI-H1299) of Table 2 below was cultured using RPMI1640, McCoy's 5a, L-15 or DMEM containing 10% fetal bovine serum, and the cells were seeded into wells of a 96-well culture dish at 100 to 1,000 cells each, and a test substance 1000 nM was cultured for seven to 11 days after drug treatment. After the culture, the cells were measured according to a manufacturer's instructions using Cell Counting Kit-8, and a cell proliferation inhibitory effect (% inhibition rate) of the test substance was obtained.
(§4) The cell proliferation inhibitory effect (% inhibition rate) of the test substance was calculated using a following equation. % inhibition rate = {1−(testgroup/controlgroup)} X 100 [formula]

G401 cells = experiment: Cancer cell proliferation inhibition (Cell Counting Kit-8), rhabdoid tumor cell line; format: cell-based; details: 1000 nM, cultured seven to 11 days; for inhibition at 1 µM: Homo sapiens, G-401, 264 h, read-out: % inhibition rate G401; for % inhibition rate G401: 1 µM
Text: (§5) Among solid cancer cells, in G401 cells in which expression of SMARCB1, which is a member of switch/sucrosenon-fermenting (SWI/SNF), is defective as a cell line of a rhabdoid tumor in which a therapeutic effect may be expected through dual inhibition of EZH1/2, and MKN-45 cells in which expression of ARID1A, which is a member of SWI/SNF, is defective as a gastric cancer cell line, a proliferation inhibitory ability of the 1,3-benzodioxole derivative compounds represented by chemical formula I of the present invention was evaluated.
as §3, §4

MKN-45 cells = experiment: Cancer cell proliferation inhibition (Cell Counting Kit-8), gastric cancer cell line; format: cell-based; details: 1000 nM, cultured seven to 11 days; for inhibition at 1 µM: Homo sapiens, MKN-45, 264 h, read-out: % inhibition rate MKN -45
Text: as §5, §3, §4

SW-13 cells = experiment: Cancer cell proliferation inhibition (Cell Counting Kit-8), adrenal cancer cell line; format: cell-based; details: 1000 nM, cultured seven to 11 days; for inhibition at 1 µM: Homo sapiens, SW13, 264 h, read-out: % inhibition rate SW-13; for % inhibition rate SW-13: 1 µM
Protocol: as §2, §3, §4

MIA-PaCa-2 cells = experiment: Cancer cell proliferation inhibition (Cell Counting Kit-8), pancreatic cancer cell line; format: cell-based; details: 1000 nM, cultured seven to 11 days; for inhibition at 1 µM: Homo sapiens, MIA PaCa-2, 264 h, read-out: % inhibition rate MIA-Paca2
Protocol: as §2, §3, §4

NCI-H1299 cells = experiment: Cancer cell proliferation inhibition (Cell Counting Kit-8), lung cancer cell line; format: cell-based; details: 1000 nM, cultured seven to 11 days; for inhibition at 1 µM: Homo sapiens, NCI-H1299, 264 h, read-out: % inhibition rate NCI-H129 9
Protocol: as §2, §3, §4

Chain of EZH1 (Q92800 whole entry, species assumed): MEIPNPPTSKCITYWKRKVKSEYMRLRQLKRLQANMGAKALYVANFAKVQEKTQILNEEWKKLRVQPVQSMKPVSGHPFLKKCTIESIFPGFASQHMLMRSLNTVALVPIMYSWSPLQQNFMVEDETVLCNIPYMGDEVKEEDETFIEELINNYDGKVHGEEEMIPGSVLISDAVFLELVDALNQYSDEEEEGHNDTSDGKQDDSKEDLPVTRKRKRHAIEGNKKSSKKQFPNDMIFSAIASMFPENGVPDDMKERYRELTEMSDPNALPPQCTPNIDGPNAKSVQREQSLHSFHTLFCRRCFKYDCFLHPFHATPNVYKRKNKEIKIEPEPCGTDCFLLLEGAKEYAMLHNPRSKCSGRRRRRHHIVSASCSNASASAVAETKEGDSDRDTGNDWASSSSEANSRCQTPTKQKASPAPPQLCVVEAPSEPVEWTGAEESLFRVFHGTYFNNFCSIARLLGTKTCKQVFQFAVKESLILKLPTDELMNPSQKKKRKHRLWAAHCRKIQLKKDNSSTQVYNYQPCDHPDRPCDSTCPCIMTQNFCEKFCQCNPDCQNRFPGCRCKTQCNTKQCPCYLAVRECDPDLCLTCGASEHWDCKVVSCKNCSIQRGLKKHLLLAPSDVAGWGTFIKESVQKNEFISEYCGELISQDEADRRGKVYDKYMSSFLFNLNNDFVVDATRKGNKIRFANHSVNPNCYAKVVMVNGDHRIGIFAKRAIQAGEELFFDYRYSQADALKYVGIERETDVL
Chain of EZH1 (O75530 whole entry partner, species assumed): as the sequence (O75530 whole entry partner, species assumed) above
Chain of EZH1 (Q15022 whole entry partner, species assumed): as the sequence (Q15022 whole entry partner, species assumed) above

Row | Structure (SMILES) | inhibition at 0.005 µM (EZH1) | inhibition at 0.005 µM (EZH2) | inhibition at 1 µM (Lovo cells) | inhibition at 1 µM (G401 cells) | inhibition at 1 µM (MKN-45 cells) | inhibition at 1 µM (SW-13 cells) | inhibition at 1 µM (MIA-PaCa-2 cells) | inhibition at 1 µM (NCI-H1299 cells) | % inhibition rate LoVo (Lovo cells; 1 µM) | % inhibition rate G401 (G401 cells) | % inhibition rate MKN -45 (MKN-45 cells; 1 µM) | % inhibition rate SW-13 (SW-13 cells) | % inhibition rate MIA-Paca2 (MIA-PaCa-2 cells) | % inhibition rate NCI-H129 9 (NCI-H1299 cells) | % inhibition rate LoVo (Lovo cells) | % inhibition rate NCI-H129 9 (NCI-H1299 cells; 1 µM) | % inhibition rate MKN -45 (MKN-45 cells)
1 | CSc1cc(C)[nH]c(=O)c1CNC(=O)c1cc(-c2ccc(N3CCC(F)(F)CC3)nc2)c2c(c1C)OC(C)([C@H]1CC[C@H](N(C)C)CC1)O2 (relative stereo) [Compound 3, 7-(6-(4,4-difluoropiperidin-1-yl)pyridin-3-yl)-2-(trans-4-(dimethylamino)cyclohexyl)-2,4-dimethyl-N-((6-methyl-4-(methylthio)-2-oxo-1,2-dihydropyridin-3-yl)methyl)benzo[d][1,3]dioxole-5-carboxamide] | 73.5% | 66.5% | 30 to 70% | 30 to 70% | ≤ 30% | 30 to 70% | ≤ 30% | 30 to 70% |  |  |  |  |  |  |  |  | 
2 | CSc1cc(C)[nH]c(=O)c1CNC(=O)c1cc(-c2cnc(N3CCCCC3)nc2)c2c(c1C)OC(C)([C@H]1CC[C@H](N(C)C)CC1)O2 (relative stereo) [Compound 4, 2-(trans-4-(dimethylamino)cyclohexyl)-2,4-dimethyl-N-((6-methyl-4-(methylthio)-2-oxo-1,2-dihydropyridin-3-yl)methyl)-7-(2-(piperidin-1-yl)pyrimidin-5-yl)benzo[d][1,3]dioxole-5-carboxamide] | 74% | 77.4% | ≥ 70% | 30 to 70% | ≤ 30% | 30 to 70% | ≤ 30% | ≤ 30% |  |  |  |  |  |  |  |  | 
3 | CCN1CCN(c2ncc(-c3cc(C(=O)NCc4c(SC)cc(C)[nH]c4=O)c(C)c4c3OC(C)(C3CCN(CC(F)(F)F)CC3)O4)cn2)CC1 (single isomer, unassigned) [Compound 77, 7-(2-(4-ethylpiperazin-1-yl)pyrimidin-5-yl)-2,4-dimethyl-N-((6-methyl-4-(methylthio)-2-oxo-1,2-dihydropyridin-3-yl)methyl)-2-(1-(2,2,2-trifluoroethyl)piperidin-4-yl)benzo[d][1,3]dioxole-5-carboxamide] |  |  |  |  |  |  |  |  | ++ (++: more than 30% and less than 70%) | + (+: ≤30%) | + (+: ≤30%) | + (+: ≤30%) | + (+: ≤30%) | + (+: ≤30%) |  |  | 
4 | CCN(C)c1ccc(-c2cc(C(=O)NCc3c(SC)cc(C)[nH]c3=O)c(C)c3c2OC(C)(C2CCN(CC(F)(F)F)CC2)O3)cn1 (single isomer, unassigned) [Compound 80, 7-(2-(ethyl(methyl)amino)pyridin-5-yl)-2,4-dimethyl-N-((6-methyl-4-(methylthio)-2-oxo-1,2-dihydropyridin-3-yl)methyl)-2-(1-(2,2,2-trifluoroethyl)piperidin-4-yl)benzo[d][1,3]dioxole-5-carboxamide] |  |  |  |  |  |  |  |  |  | + (+: ≤30%) | ++ (++: more than 30% and less than 70%) | + (+: ≤30%) | + (+: ≤30%) |  | +++ (+++: ≥70%) | + (+: ≤30%) | 
5 | CCN(C)c1ncc(-c2cc(C(=O)NCc3c(SC)cc(C)[nH]c3=O)c(C)c3c2OC(C)(C2CCN(CC(F)F)CC2)O3)cn1 (single isomer, unassigned) [Compound 82, 2-(1-(2,2-difluoroethyl)piperidin-4-yl)-7-(2-(ethyl(methyl)amino)pyrimidin-5-yl)-2,4-dimethyl-N-((6-methyl-4-(methylthio)-2-oxo-1,2-dihydropyridin-3-yl)methyl)benzo[d][1,3]dioxole-5-carboxamide] |  |  |  |  |  |  |  |  |  | ++ (++: more than 30% and less than 70%) | + (+: ≤30%) | + (+: ≤30%) | + (+: ≤30%) | + (+: ≤30%) | +++ (+++: ≥70%) |  | 
6 | CCN1CCC(C2(C)Oc3c(-c4cnc(N(C)CC)nc4)cc(C(=O)NCc4c(SC)cc(C)[nH]c4=O)c(C)c3O2)CC1 (single isomer, unassigned) [Compound 84, 7-(2-(ethyl(methyl)amino)pyrimidin-5-yl)-2-(1-ethylpiperidin-4-yl)-2,4-dimethyl-N-((6-methyl-4-(methylthio)-2-oxo-1,2-dihydropyridin-3-yl)methyl)benzo[d][1,3]dioxole-5-carboxamide] |  |  |  |  |  |  |  |  | + (+: ≤30%) | + (+: ≤30%) |  | + (+: ≤30%) | + (+: ≤30%) | + (+: ≤30%) |  |  | + (+: ≤30%)
7 | CCN(C)c1ccc(-c2cc(C(=O)NCc3c(SC)cc(C)[nH]c3=O)c(C)c3c2OC(C)(C2CCN(CC(F)(F)F)CC2)O3)cn1 (single isomer, unassigned) [Compound 87, 7-(6-(ethyl(methyl)amino)pyridin-3-yl)-2,4-dimethyl-N-((6-methyl-4-(methylthio)-2-oxo-1,2-dihydropyridin-3-yl)methyl)-2-(1-(2,2,2-trifluoroethyl)piperidin-4-yl)benzo[d][1,3]dioxole-5-carboxamide] |  |  |  |  |  |  |  |  |  | + (+: ≤30%) | + (+: ≤30%) | + (+: ≤30%) | + (+: ≤30%) |  | +++ (+++: ≥70%) | + (+: ≤30%) | 
8 | CSc1cc(C)[nH]c(=O)c1CNC(=O)c1cc(-c2ccc(N3CC(C)CC(C)C3)nc2)c2c(c1C)OC(C)(C1CCN(CC(F)(F)F)CC1)O2 (stereo not shown) [Compound 37, 7-(6-(3,5-dimethylpiperidin-1-yl)pyridin-3-yl)-2,4-dimethyl-N-((6-methyl-4-(methylthio)-2-oxo-1,2-dihydropyridin-3-yl)methyl)-2-(1-(2,2,2-trifluoroethyl)piperidin-4-yl)benzo[d][1,3]dioxole-5-carboxamide] |  |  | ≥ 70% | ≤ 30% | ≤ 30% | ≤ 30% | ≤ 30% | 30 to 70% |  |  |  |  |  |  |  |  | 
9 | CSc1cc(C)[nH]c(=O)c1CNC(=O)c1cc(-c2ccc(N3C[C@@H](C)O[C@@H](C)C3)nc2)c2c(c1C)OC(C)([C@H]1CC[C@H](N3CC(CC(F)(F)F)C3)CC1)O2 (stereo partly drawn) [Compound 102, 7-(6-((2S,6R)-2,6-dimethylmorpholino)pyridin-3-yl)-2,4-dimethyl-N-((6-methyl-4-(methylthio)-2-oxo-1,2-dihydropyridin-3-yl)methyl)-2-(trans-4-(3-(2,2,2-trifluoroethyl)azetidin-1-yl)cyclohexyl)benzo[d][1,3]dioxole-5-carboxamide] |  |  | ≥ 70% | 30 to 70% | 30 to 70% | ≥ 70% | ≥ 70% | ≤ 30% |  |  |  |  |  |  |  |  | 
10 | CSc1cc(C)[nH]c(=O)c1CNC(=O)c1cc(-c2ccc(N3C[C@@H](C)O[C@@H](C)C3)nc2)c2c(c1C)OC(C)([C@H]1CC[C@H](N3CC(OC(C)C)C3)CC1)O2 (stereo partly drawn) [Compound 105, 7-(6-((2S,6R)-2,6-dimethylmorpholino)pyridin-3-yl)-2-(trans-4-(3-isopropoxyazetidin-1-yl)cyclohexyl)-2,4-dimethyl-N-((6-methyl-4-(methylthio)-2-oxo-1,2-dihydropyridin-3-yl)methyl)benzo[d][1,3]dioxole-5-carboxamide] |  |  | ≥ 70% | 30 to 70% | ≥ 70% | ≥ 70% | ≥ 70% | ≥ 70% |  |  |  |  |  |  |  |  | 

— EP4740948A1 (Dong Wha Pharm. Co., Ltd., priority 2023, dated 2025)
